Data taken from patent publication US20120244074A1, “LABELLED INTEGRIN BINDERS” (priority 2009, published 2012).

Assays:
integrin receptors αvβ3 = molecular target: T1, integrin receptors αvβ3 (Homo sapiens, UniProt P05106+P06756); experiment: In vitro affinity assessment αvβ3: competition with radiolabelled Echistatin on membrane fractions of EA-Hy 926; type: binding; settings: for competing out binding of the radiolabelled Echistatin: highest concentration tested 144 μM, FIG. 1
T1 construct: membrane fractions prepared from human endothelial adenocarcinoma cell line EA-Hy 926; endogenous in cells; host or cells: EA-Hy 926 (human endothelial cell line), membrane fractions
Protocol: Affinity for integrin receptors αvβ3 was measured by competition experiments with [[…]]-Echistatin on membrane fractions prepared from human endothelial adenocarcinoma cell line EA-Hy 926 using a homogenizer and isolated by ultracentrifugation. Dilutions of test compounds were mixed with the radiotracer and membrane fraction prior to incubation for 1 h at 37° C. After a washing procedure the membranes were harvested on a filter using Skatron micro harvester. The filter spots were finally excised and counted in a Packard γ-counter. The Kd of [[…]]-Echistatin was calculated using Prism software. […] The compounds tested were EMD527040 (benchmark), the cPn216-chelated compound of Example 2(viii) and the tetraamine-chelated compound of Example 3(ii).

[1] = tested on: lung adenocarcinoma cell line H2009; experiment: Flow cytometry evaluation of binding on H2009 cells; type: cell-based; settings: 100 nM, incubation time 1 h at 37° C.
From the text: Binding of imaging agent 7 (prepared as described in Example 9) was studied using flow cytometric analysis (Beckman Coulter FC500 MPL) on lung adenocarcinoma cell line H2009 (Cancer Res; 67: 5889-5895).

Compound | competing out binding of the radiolabelled Echistatin (integrin receptors αvβ3) | other results
O=C(O)CC(NC(=O)[C@H](COCc1ccccc1)NC(=O)CCCCNc1ccccn1)c1cc(Cl)cc(Cl)c1 (some centres unmarked) [EMD527040, reference compound] | not possible to compete out binding of the radiolabelled Echistatin completely | 
NCCNCC(CNCCN)CC(=O)NC[C@H](NC(=O)CCCCNc1ccccn1)C(=O)NC(CC(=O)O)c1cc(Cl)cc(Cl)c1 (stereo partly drawn) [Example 3(ii), 3-((S)-3-(4-(2-Aminoethylamino)-3-((2-aminoethylamino)methyl)butanamido)-2-(5-(pyridin-2-ylamino)pentanamido)propanamido)-3-(3,5-dichlorophenyl)propanoic acid] | not possible to compete out binding of the radiolabelled Echistatin completely | 
1-(Cy5**-amido)-45-(3,5-dichlorophenyl)-39,43-dioxo-42-(5-(pyridin-2-ylamino)pentanamido)-3,6,9,12,15,18,21,24,27,30,33,36-dodecaoxa-40,44-diazaheptatetracontan-47-oic acid [imaging agent 7] |  | positive uptake, share of the cells [1]: around 40%
Echistatin [reference compound] |  | Ki (integrin receptors αvβ3; competition with [^115I]-Echistatin, EA-Hy 926 membrane fraction, 1 h at 37° C.): 0.14 nM
C/C(=N/O)C(C)(C)NCCC(CCNC(=O)CCCC(=O)NC[C@H](NC(=O)CCCCNc1ccccn1)C(=O)NC(CC(=O)O)c1cc(Cl)cc(Cl)c1)CCNC(C)(C)/C(C)=N\O (stereo partly drawn) [Example 2(viii), (6S,Z)-3-(3,5-dichlorophenyl)-22-(hydroxyimino)-17-(2-(((Z)-3-(hydroxyimino)-2-methylbutan-2-yl)amino)ethyl)-21,21-dimethyl-5,9,13-trioxo-6-(5-(pyridin-2-ylamino)pentanamido)-4,8,14,20-tetraazatricosan-1-oic acid] | not possible to compete out binding of the radiolabelled Echistatin completely | 
